Source: patent US10519152B2, “Compounds and their use in treating cancer” (AstraZeneca AB, priority 2017, dated 2019)

Experiments:
[1] = target: T1, Estrogen Receptor (ERα) in MCF-7 human ductal carcinoma breast cell line (Homo sapiens, UniProt P03372); test: MCF-7 ER degradation assay (cell based immuno-fluorescence); details: MCF-7 cells; for DC50: 18-22 hours incubation, 50% reduction of ERα expression, single experiment or average of two or more, read-out: MCF-7 ER degradation IC50
T1 construct: endogenous in cells; host or cells: MCF-7
T1 sequence (P03372 1-595): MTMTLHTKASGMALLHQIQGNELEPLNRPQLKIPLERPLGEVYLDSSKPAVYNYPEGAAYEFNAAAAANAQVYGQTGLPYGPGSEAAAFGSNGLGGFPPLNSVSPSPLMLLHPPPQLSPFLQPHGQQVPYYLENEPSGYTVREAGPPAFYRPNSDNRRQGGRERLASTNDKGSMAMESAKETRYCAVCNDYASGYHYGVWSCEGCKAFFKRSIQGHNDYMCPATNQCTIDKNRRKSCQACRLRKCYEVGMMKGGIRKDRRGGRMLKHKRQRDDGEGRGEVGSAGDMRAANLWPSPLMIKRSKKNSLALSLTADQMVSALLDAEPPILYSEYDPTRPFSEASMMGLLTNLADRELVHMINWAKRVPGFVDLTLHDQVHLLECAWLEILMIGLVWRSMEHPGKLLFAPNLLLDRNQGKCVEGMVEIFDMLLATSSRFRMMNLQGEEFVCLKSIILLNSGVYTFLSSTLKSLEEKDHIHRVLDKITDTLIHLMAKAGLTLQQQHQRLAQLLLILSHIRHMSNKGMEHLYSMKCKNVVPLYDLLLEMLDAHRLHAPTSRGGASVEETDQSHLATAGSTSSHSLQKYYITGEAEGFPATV
Protocol: MCF-7 ER Degradation Assay
The ability of compounds to down-regulate Estrogen Receptor (ER) numbers was assessed in a cell based immuno-fluorescence assay using the MCF-7 human ductal carcinoma breast cell line. MCF-7 cells were revived directly from a cryovial (approx 5×10^6 cells) in Assay Medium (phenol red free Dulbecco's Modified Eagle's medium (DMEM); Sigma D5921) containing 2 mM L-Glutamine and 5% (v/v) Charcoal/Dextran treated foetal calf serum. Cells were syringed once using a sterile 18 G×1.5 inch (1.2×40 mm) broad gauge needle and cell density was measured using a Coulter Counter (Beckman). Cells were further diluted in Assay Medium to a density of 3.75×10^4 cells per mL and 40 μL per well added to transparent bottomed, black, tissue culture-treated 384 well plates (Costar, No. 3712) using a Thermo Scientific Matrix WellMate or Thermo Multidrop. Following cell seeding, plates were incubated overnight at 37° C., 5% CO2 (Liconic carousel incubator). Test data was generated using the LabCyte Echo™ model 555 compound reformatter which is part of an automated workcell (Integrated Echo 2 workcell). Compound stock solutions (10 mM) of the test compounds were used to generate a 384 well compound dosing plate (Labcyte P-05525-CV1). 40 μL of each of the 10 mM compound stock solutions was dispensed into the first quadrant well and then 1:100 step-wise serial dilutions in DMSO were performed using a Hydra II (MATRIX UK) liquid handling unit to give 40 μL of diluted compound into quadrant wells 2 (0.1 mM), 3 (1 μM) and 4 (0.01 μM), respectively. 40 μL of DMSO added to wells in row P on the source plate allowed for DMSO normalisation across the dose range. To dose the control wells 40 μL of DMSO was added to row O1 and 40 μL of 100 μM fulvestrant in DMSO was added to row O3 on the compound source plate.
The Echo uses acoustic technology to perform direct microplate-to-microplate transfers of DMSO compound solutions to assay plates. The system can be programmed to transfer volumes as low as 2.5 nL in multiple increments between microplates and in so doing generates a serial dilution of compound in the assay plate which is then back-filled to normalise the DMSO concentration across the dilution range. Compounds were dispensed onto the cell plates with a compound source plate prepared as above producing a 12 point duplicate […] dose range with 3-fold dilutions and one final 10-fold dilution using the Integrated Echo 2 workcell. The maximum signal control wells were dosed with DMSO to give a final concentration of 0.3%, and the minimum signal control wells were dosed with fulvestrant to give a final concentration of 100 nM accordingly. Plates were further incubated for 18-22 hours at 37° C., 5% CO2 and then fixed by the addition of 20 μL of 11.1% (v/v) formaldehyde solution (in phosphate buffered saline (PBS)) giving a final formaldehyde concentration of 3.7% (v/v). Cells were fixed at room temperature for 20 mins before being washed two times with 250 μL PBS/Proclin (PBS with a Biocide preservative) using a BioTek platewasher, 40 μL of PBS/Proclin was then added to all wells and the plates stored at 4° C. The fixing method described above was carried out on the Integrated Echo 2 workcell. Immunostaining was performed using an automated AutoElisa workcell. The PBS/Proclin was aspirated from all wells and the cells permeabilised with 40 μL PBS containing 0.5% Tween™ 20 (v/v) for 1 hour at room temperature. The plates were washed three times in 250 μL of PBS/0.05% (v/v) Tween 20 with Proclin (PBST with a Biocide preservative) and then 20 μL of ERα (SP1) Rabbit monoclonal antibody (Thermofisher) 1:1000 in PBS/Tween™/3% (w/v) Bovine Serum Albumin was added. The plates were incubated overnight at 4° C. (Liconic carousel incubator) and then washed three times in 250 μL of PBS/0.05% (v/v) Tween™ 20 with Proclin (PBST). […]

[2] = target: T2, recombinant human Estrogen Receptor alpha ligand binding domain, residues 307-554 (ER alpha-LBD (GST)) (Homo sapiens, UniProt P03372); test: ERα binding assay (LanthaScreen TR-FRET competition); details: TR-FRET competition with Fluormone ES2 tracer, 4 hours at room temperature; single experiment or average of two or more
T2 construct: made in house
T2 sequence (P03372 307-554): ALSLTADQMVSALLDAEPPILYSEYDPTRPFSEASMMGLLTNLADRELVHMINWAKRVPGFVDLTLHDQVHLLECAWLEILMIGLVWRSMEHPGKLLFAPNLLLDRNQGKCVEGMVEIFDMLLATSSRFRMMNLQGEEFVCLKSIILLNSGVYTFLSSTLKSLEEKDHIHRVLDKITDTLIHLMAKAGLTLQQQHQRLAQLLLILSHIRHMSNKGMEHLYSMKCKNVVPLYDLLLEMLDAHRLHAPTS
Protocol: The ability of compounds to bind to isolated Estrogen Receptor Alpha Ligand binding domain (ER alpha-LBD (GST)) was assessed in competition assays using a LanthaScreen™ Time-Resolved Fluorescence Resonance Energy Transfer (TR-FRET) detection end-point. For the LanthaScreen TR-FRET endpoint, a suitable fluorophore (Fluormone ES2, ThermoFisher, Product code P2645) and recombinant human Estrogen Receptor alpha ligand binding domain, residues 307-554 (expressed and purified in-house) were used to measure compound binding. The assay principle is that ER alpha-LBD (GST) is added to a fluorescent ligand to form a receptor/fluorophore complex. A terbium-labelled anti-GST antibody (Product code PV3551) is used to indirectly label the receptor by binding to its GST tag, and competitive binding is detected by a test compound's ability to displace the fluorescent ligand, resulting in a loss of TR-FRET signal between the Tb-anti-GST antibody and the tracer. The assay was performed as follows with all reagent additions carried out using the Beckman Coulter BioRAPTR FRD microfluidic workstation: • 1. Acoustic dispense 120 nL of the test compound into a black low volume 384 well assay plates. • 2. Prepare 1×ER alpha-LBD/Tb-antiGST Ab in ES2 screening buffer and incubate for 15 minutes. • 3. Dispense 6 μL of the […] reagent into each well of the assay plate followed by 6 μL of Fluorophore reagent into each well of the assay plate • 4. Cover the assay plate to protect the reagents from light and evaporation, and incubate at room temperature for 4 hours. • 5. Excite at 337 nm and measure the fluorescent emission signal of each well at 490 nm and 520 nm using the BMG PheraSTAR.
Compounds were dosed directly from a compound source microplate containing serially diluted compound (4 wells containing 10 mM, […] and 10 nM final compound respectively) to an assay microplate using the Labcyte Echo 550. The Echo 550 is a liquid handler that uses acoustic technology to perform direct microplate-to-microplate transfers of DMSO compound solutions and the system can be programmed to transfer multiple small nL volumes of compound from the different source plate wells to give the desired serial dilution of compound in the assay which is then back-filled to normalise the DMSO concentration across the dilution range.
In total 120 nL of compound plus DMSO were added to each well and compounds were tested in a 12-point concentration response format over a final compound concentration range of 10, 2.917, 1.042, 0.2083, 0.1, 0.0292, 0.0104, 0.002083, 0.001, 0.0002917, 0.0001042, and 0.00001 μM respectively. TR-FRET dose response data obtained with each compound was exported into a suitable software package (such as Origin or Genedata) to perform curve fitting analysis. Competitive ER alpha binding was expressed as an IC50 value. This was determined by calculation of the concentration of compound that was required to give a 50% reduction in tracer compound binding to ER alpha-LBD.

Row | SMILES | DC50 [1] | IC50 [2] | ER degradation ≥ 90% at 0.3 μM ([1]; 0.3 μM, ER degradation by fulvestrant at 0.3 μM is defined as 100%)
1 | Cc1ncsc1-c1ccc(CNC(=O)[C@@H]2C[C@@H](O)CN2C(=O)[C@@H](NC(=O)CCCN2CCN(CCCOc3cc(F)c([C@@H]4c5[nH]c6ccccc6c5C[C@@H](C)N4CC(C)(C)F)c(F)c3)CC2)C(C)(C)C)cc1 [Example 1, (2S,4R)-1-((S)-2-(4-(4-(3-(3,5-Difluoro-4-((1R,3R)-2-(2-fluoro-2-methylpropyl)-3-methyl-2,3,4,9-tetrahydro-1H-pyrido[3,4-b]indol-1-yl)phenoxy)propyl)piperazin-1-yl)butanamido)-3,3-dimethylbutanoyl)-4-hydroxy-N-(4-(4-methylthiazol-5-yl)benzyl)pyrrolidine-2-carboxamide] | 0.7 nM | 0.9 nM | 
2 | Cc1ncsc1-c1ccc(CNC(=O)[C@@H]2C[C@@H](O)CN2C(=O)[C@@H](NC(=O)CN2CCN(CCCCCOc3cc(F)c([C@@H]4c5[nH]c6ccccc6c5C[C@@H](C)N4CC(C)(C)F)c(F)c3)CC2)C(C)(C)C)cc1 [Example 2, (2S,4R)-1-((S)-2-(2-(4-(5-(3,5-Difluoro-4-((1R,3R)-2-(2-fluoro-2-methylpropyl)-3-methyl-2,3,4,9-tetrahydro-1H-pyrido[3,4-b]indol-1-yl)phenoxy)pentyl)piperazin-1-yl)acetamido)-3,3-dimethylbutanoyl)-4-hydroxy-N-(4-(4-methylthiazol-5-yl)benzyl)pyrrolidine-2-carboxamide] | 2.9 nM | 0.6 nM | 
3 | Cc1ncsc1-c1ccc(CNC(=O)[C@@H]2C[C@@H](O)CN2C(=O)[C@@H](NC(=O)COCC/C=C/CCOc2ccc([C@@H]3c4[nH]c5ccccc5c4C[C@@H](C)N3CC(F)F)nc2)C(C)(C)C)cc1 [Example 21, (2S,4R)-1-((S)-2-(2-(((E)-6-((6-((1S,3R)-2-(2,2-Difluoroethyl)-3-methyl-2,3,4,9-tetrahydro-1H-pyrido[3,4-b]indol-1-yl)pyridin-3-yl)oxy)hex-3-en-1-yl)oxy)acetamido)-3,3-dimethylbutanoyl)-4-hydroxy-N-(4-(4-methylthiazol-5-yl)benzyl)pyrrolidine-2-carboxamide] | 300 nM | 13 nM | 
4 | Cc1ncsc1-c1ccc(CNC(=O)[C@@H]2C[C@@H](O)CN2C(=O)[C@@H](NC(=O)COCCCCOCCOc2ccc([C@@H]3c4[nH]c5ccccc5c4C[C@@H](C)N3CC(F)F)nc2)C(C)(C)C)cc1 [Example 24, (2S,4R)-1-((S)-2-(2-(4-(2-((6-((1S,3R)-2-(2,2-Difluoroethyl)-3-methyl-2,3,4,9-tetrahydro-1H-pyrido[3,4-b]indol-1-yl)pyridin-3-yl)oxy)ethoxy)butoxy)acetamido)-3,3-dimethylbutanoyl)-4-hydroxy-N-(4-(4-methylthiazol-5-yl)benzyl)pyrrolidine-2-carboxamide] | 300 nM | 18 nM | 
5 | Cc1ncsc1-c1ccc(CNC(=O)[C@@H]2C[C@@H](O)CN2C(=O)[C@@H](NC(=O)COCCCOCCOc2cc(F)c([C@@H]3c4[nH]c5ccccc5c4C[C@@H](C)N3CC(C)(C)F)c(F)c2)C(C)(C)C)cc1 [Example 25, (2S,4R)-1-((S)-2-(2-(3-(2-(3,5-Difluoro-4-((1R,3R)-2-(2-fluoro-2-methylpropyl)-3-methyl-2,3,4,9-tetrahydro-1H-pyrido[3,4-b]indol-1-yl)phenoxy)ethoxy)propoxy)acetamido)-3,3-dimethylbutanoyl)-4-hydroxy-N-(4-(4-methylthiazol-5-yl)benzyl)pyrrolidine-2-carboxamide] |  | 0.5 nM | ••
